{"source": "patent US11466032B2", "about": "“Cytotoxic agents” (FEMTOGENIX LIMITED, priority 2017, dated 2022)", "key": {"[1]": {"test_system": "fluorescently labelled DNA duplexes", "assay": "FRET DNA melting", "assay_type": "binding", "description": "FRET DNA Melting FRET DNA melting studies were undertaken on 26 and 34 using a number of fluorescently labelled sequences. The sequences (FIG. 10) were designed to provide additional evidence that 26 and 34 can form inter- and intrastrand cross-links at the site 5′-XYWWYWYX-3′.\nThe short duplexes used in this FRET study are relatively unstable in the duplex form with a melting temperature below 30° C. so that, in the absence of ligand, a large part of the melting occurs below the starting temperature of the experiment.\nOligonucleotides were obtained from ATDbio (Southampton, UK) in lyophilised form. They were labelled with a fluorophore molecule (F=fluorescein) at the 5′-end and a quencher molecule (Q=dabcyl) at the 3′-end of the complementary strand. Each oligonucleotide was dissolved in distilled H2O to form stock solutions of 100 μM. Working solutions of 5 μM were prepared by diluting the stock solution with distilled H2O.\nThe following buffers were used: 250 mM phosphate buffer pH 7.4 (consisting of sodium dihydrogen phosphate and sodium phosphate diluted in distilled H2O) and 5 M sodium chloride buffer. All buffers and distilled H2O were filtered through a […] filter prior to use.\nThe reaction mixture was comprised of 4 μL of 250 mM phosphate buffer (final concentration of 50 mM), 4 μL flourophor and 4 μL quencher molecule of the appropriate oligonucleotide for a final concentration of 0.2 μM, 4 μL 5 M sodium chloride (final concentration of 1 M NaCl), and 4 μL of distilled H2O. This mixture was heated in an Eppendorf tube at 90° C. for 1 min and slowly cooled down to room temperature. This process was carried out to anneal the single strands to double-stranded DNA. Following this, 4 μL of the ligand was added in the desired concentration and the mixture incubated overnight either at room temperature or 4° C. […] This mixture was analysed without prior annealing.\nFluorescence melting profiles were measured using a Roche LightCycler using a total reaction volume of 20 μL. […] Annealing steps and melting steps were all recorded and changes in fluorescence were measured at 520 nm. […]"}, "[2]": {"test_system": "HexA and MS1 DNA fragments", "assay": "DNA footprinting", "assay_type": "binding", "conditions": "X is any base, Y is G or C, W is A or T; overnight incubation", "description": "The sequence selectivity of 26 and 34 was investigated using a modification of the previously established DNA footprinting assay^25. Following an overnight incubation of the ligand-DNA complexes, the mixture was mixed with strand separation buffer containing 10 mM EDTA, 10 mM NaOH, 0.1% bromophenol blue, 80% formamide and incubated at 100° C. for 3 min. The mixture was then immediately cooled on ice and run on an 8% denaturing gel.\nFootprinting reactions were performed as previously described^[5] using the DNA fragments HexA and HexB, which together contain all 64 symmetrical hexanucleotide sequences^[6], and MS1 that contains all possible […] tetranucleotide sequences^[7]. The DNA fragments were obtained by cutting the parent plasmids with HindIII and SacI (for HexA and MS1) or EcoRI and PstI (for HexB), and were labelled at the 3′-end of the HindIII or EcoRI sites with [α-^32P]dATP using reverse transcriptase or exo-Klenow fragment. After gel purification, the radiolabelled DNA was dissolved in 10 mM Tris-HCl pH 7.5 containing 0.1 mM EDTA, at a concentration of about 10 c.p.s per μL as determined on a hand held Geiger counter. 1.5 μL of radiolabelled DNA was mixed with 1.5 μL ligand that had been freshly diluted in 10 mM Tris-HCl pH 7.5, containing 10 mM NaCl. […]"}}, "data": [{"compound": "CNS(=O)(=O)c1ccc(C2=CCN3C(=O)c4cc(OC)c(OCc5cccc(COc6cc7c(cc6OC)C(=O)N6CC=C(c8ccc(S(=O)(=O)NC)cc8)C[C@H]6C=N7)n5)cc4N=C[C@@H]3C2)cc1", "note": "[Compound 34, 4,4′-((6aS,6a′S)-((Pyridine-2,6-diylbis(methylene))bis(oxy))bis(2-methoxy-12-oxo-6a,7,10,12-tetrahydrobenzo[e]pyrido[1,2-α][1,4]diazepine-3,8-diyl))bis(N-methylbenzenesulfonamide)]", "values": [{"measurement": "Tm of duplex with ligand", "setting": "[1]; 5′-AAAAAAGAGAACAAAAAA-3′ (Seq 23), interstrand cross-link", "result": "~71", "unit": "°C"}, {"measurement": "stabilisation of duplex", "setting": "[1]; 5′-AAAAAAGATCAAAAAA-3′ (Seq 12), traditional PBD binding site", "result": "limited stabilisation"}, {"measurement": "Tm of duplex with ligand", "setting": "[1]; AAAAAAGAGAGAAAAAA-3′ (Seq 20), intrastrand cross-link", "result": 66, "unit": "°C"}, {"measurement": "general code of the footprints (preferred binding sites)", "setting": "[2]", "result": "XYWWYWYX"}]}]}
